Measurements reported in US10442793B2, “Oxa spiro derivative, preparation method therefor, and applications thereof in medicines” (Jiangsu Hengrui Medicine Co., Ltd., priority 2015, dated 2019).
Where two headings read alike, the source gives them in different places.

Tests used:
Assay type in all cases: cell-based
μ-opioid receptors (MOR) = biological target: T1, μ-opioid receptors (MOR) (Homo sapiens, UniProt P35372); assay: MOR activity test: HEK293/MOR/CRE luciferase reporter, agonizing MOR and affecting downstream cAMP levels; conditions: for Emax: HEK293, maximum effect of TRV-130 is 100%, read-out: Emax on agonizing MOR receptor and affecting cAMP levels
T1 construct: host or cells: HEK293
T1 sequence (P35372 whole entry): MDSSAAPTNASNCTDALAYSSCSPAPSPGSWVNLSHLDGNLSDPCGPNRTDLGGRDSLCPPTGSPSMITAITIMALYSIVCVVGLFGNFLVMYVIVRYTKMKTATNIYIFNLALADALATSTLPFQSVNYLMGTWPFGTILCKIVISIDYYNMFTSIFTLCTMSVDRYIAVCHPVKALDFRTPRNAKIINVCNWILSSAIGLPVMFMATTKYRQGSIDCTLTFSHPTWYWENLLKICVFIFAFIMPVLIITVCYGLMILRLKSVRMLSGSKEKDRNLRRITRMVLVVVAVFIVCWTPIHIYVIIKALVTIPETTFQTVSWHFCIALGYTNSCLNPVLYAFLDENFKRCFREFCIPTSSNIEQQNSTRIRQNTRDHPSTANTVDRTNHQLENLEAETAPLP
Excerpt: The compounds of the present invention can activate μ-opioid receptors (MOR). Activated MOR can regulate intracellular cAMP levels, and cAMP enters the nucleus and binds to the CRE region of the reporter gene luciferase, thereby initiating the expression of the reporter gene. Luciferase can react with its substrate to emit fluorescence, and the measured fluorescence signals reflect the agonistic activity of the compounds.
The activity of the test example compounds on agonizing MOR and affecting downstream cAMP levels was tested by the following method.
MOR/pcDNA3.1 (+) and CRE/pGL4.29 were transferred into HEK293 cells. G418 and hygromycin were added into the culture medium, and HEK293/MOR/CRE monoclonal cell lines were screened in a 96-well cell culture plate.
HEK293/MOR/CRE monoclonal cells were cultured in a DMEM/high glucose medium (10% FBS, 1 mg/ml G418, 200 μg/ml hygromycin, mixed uniformly), and passaged every 3 days. On the day of the experiment, a cell suspension was prepared with a fresh cell medium, added to a 96 well plate (BD, #356692) with 20,000 cells/well, and incubated in 5% CO2 at 37° C. On the second day, the compound was dissolved in pure DMSO at a concentration of 20 mM, then formulated with DMSO to a first concentration of 4 mM and diluted in 10 fold concentration gradient to 6 concentrations. Then, 90 μl of DMSO was added to blank and control wells. Then, formulated compound was prepared by adding 2.5 μl of the compound solutions formulated in DMSO at a gradient concentration to 97.5 μl of a fresh cell culture medium containing 5 μM foscolin. Then, 10 μl of the formulated compound was added to the cell culture plate to make the final concentration of the compound 10000, 1000, 100, 10, 1, 0.1, or 0.01 nM, and the plate was incubated at 37° C., in 5% CO2 for 5 hours. In a 96-well cell culture plate, 100 μl of luciferase assay solution (Promega, # E6110) was added to each well. The plate was placed in the dark at room temperature for 10-15 minutes, blowed and aspirated 10 times, and 100 μl were pipetted to a 96 well white plate. The chemiluminescence signal values were read in a microplate reader (PE, Victor3), and the read data was processed using software.
The activity of the compounds of the present invention on agonizing MOR and affecting downstream cAMP levels was determined by the above test, and the EC50 values are shown in Table 1.1.

hERG potassium channel = biological target: T2, hERG potassium channel (Homo sapiens, UniProt Q12809); assay: Blocking of hERG potassium current, automatic patch clamp on HEK293-hERG cells
T2 construct: expressed in transfected cells; host or cells: HEK293
T2 sequence (Q12809 whole entry): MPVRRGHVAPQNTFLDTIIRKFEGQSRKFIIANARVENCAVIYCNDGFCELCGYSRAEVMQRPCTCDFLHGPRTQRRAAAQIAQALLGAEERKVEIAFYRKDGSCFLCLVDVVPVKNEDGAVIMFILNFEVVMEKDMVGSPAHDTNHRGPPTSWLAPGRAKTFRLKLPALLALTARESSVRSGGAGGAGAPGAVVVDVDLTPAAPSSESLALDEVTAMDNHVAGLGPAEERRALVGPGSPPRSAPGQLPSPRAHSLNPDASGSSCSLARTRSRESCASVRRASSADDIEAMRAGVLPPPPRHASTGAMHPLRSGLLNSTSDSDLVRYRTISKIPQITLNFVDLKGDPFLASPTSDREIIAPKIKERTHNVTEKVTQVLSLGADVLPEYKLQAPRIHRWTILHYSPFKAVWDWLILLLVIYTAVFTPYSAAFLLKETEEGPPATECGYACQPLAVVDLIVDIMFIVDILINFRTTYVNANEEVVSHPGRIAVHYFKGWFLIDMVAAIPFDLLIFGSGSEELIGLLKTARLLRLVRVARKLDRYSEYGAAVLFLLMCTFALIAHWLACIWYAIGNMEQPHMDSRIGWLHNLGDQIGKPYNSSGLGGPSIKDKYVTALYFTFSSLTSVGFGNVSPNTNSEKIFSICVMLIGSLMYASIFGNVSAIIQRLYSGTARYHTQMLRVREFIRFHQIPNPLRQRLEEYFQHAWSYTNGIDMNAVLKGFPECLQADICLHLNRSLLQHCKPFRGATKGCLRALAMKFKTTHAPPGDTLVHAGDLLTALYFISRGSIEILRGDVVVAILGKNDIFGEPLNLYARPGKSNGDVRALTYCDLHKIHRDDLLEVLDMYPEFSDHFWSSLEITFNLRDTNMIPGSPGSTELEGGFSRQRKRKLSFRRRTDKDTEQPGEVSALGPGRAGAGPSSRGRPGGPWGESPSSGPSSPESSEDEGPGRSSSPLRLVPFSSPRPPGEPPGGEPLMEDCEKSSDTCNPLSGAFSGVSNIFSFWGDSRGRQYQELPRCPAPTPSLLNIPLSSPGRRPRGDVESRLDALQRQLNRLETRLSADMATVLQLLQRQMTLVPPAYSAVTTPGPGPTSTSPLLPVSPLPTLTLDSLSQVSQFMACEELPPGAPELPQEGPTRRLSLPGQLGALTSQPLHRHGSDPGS
Procedure: The blocking effect of the compounds of the present invention and the positive compound TRV-130 (Journal of Pharmacology and Experimental Therapeutics, Volume 344, Issue 3, Pages 708-717, 2013) on hERG potassium current was tested on a stable cell line transfected with hERG potassium channel using an automatic patch clamp.
HEK293-hERG stabilized cells were subcultured at a density of 1:4 in a MEM/EBSS medium (10% FBS, 400 μg/ml G418, 1% MEM nonessential amino acid solution (100×), 1% sodium pyruvate solution) for 48-72 hours, then the automatic patch clamp experiment was performed. The cells were digested with 0.25% trypsin on the day of the experiment, then the cells were collected by centrifugation and resuspended with extracellular fluid (140 mM NaCl, 4 mM KCl, 1 mM MgCl2, 2 mM CaCl2, 5 mM D-glucose monohydrate, 10 mM Hepes, pH 7.4, 298 mOsmol) into a cell suspension. The cell suspension was placed on the cell bank of the Patchliner instrument, and the cells were added to the chip (NPC-16) by the negative pressure controller of the Patchliner instrument, with negative pressure attracting individual cells to the small hole of the chip. After the whole cell model was formed, the instrument generated the hERG current according to the preset hERG current and voltage program, and then the instrument perfused the compound from low concentration to high concentration automatically. HEAK Patchmaster, HEAK EPC10 patch clamp amplifier (Nanion), Pathliner software, and a data analysis software provided by Pathcontrol HTsoftware were used to analyze the current of the compounds at different concentrations and the current of the blank control.
The blocking effect of the compounds of the present invention on hERG potassium current was determined by the above test, and the IC50 values are shown in Table 3.

MOR receptor = biological target: T3, MOR receptor (Homo sapiens, UniProt P35372); assay: Activation of the β-arrestin signaling pathway of MOR receptor (CHO-K1 OPRM1 β-Arrestin cells, DiscoveRX); conditions: for Emax: maximum effect of morphine is 100%
T3 construct: host or cells: CHO-K1
T3 sequence (P35372 whole entry): as the sequence (P35372 whole entry) above
Procedure: The experiment objective is to determine the activity of the compounds of the present invention on activating the β-arrestin signaling pathway of MOR receptor.
The drug was prepared as a 20 mM stock solution that was later diluted with 100% DMSO to a 200×concentration gradient, and then diluted with a 20-fold AssayComplete™ Cell Plating 2 Reagent (93-0563R2B, DiscoveRX) medium. The cell culture plate inoculated on the first day was taken out, and 10 μl of the diluted drug or control (0.5% DMSO) was added to each well. The plate was gently shaken and placed in an incubator at 37° C., 5% CO2 for 90 minutes. Finally, 50 μL of a detection reagent (93-0001, DiscoveRX) were added to each well, and the plate was placed at room temperature for 60 minutes. The absorbance values were measured by the cold light model of a microplate reader (PE, Victor3). The EC50 values of the compounds were calculated by Graphpad Prism software according to each concentration of the compound and the corresponding signal value.

[1] = HEK293/MOR/CRE cells, 5 h incubation, forskolin, read-out: EC50 on agonizing MOR receptor and affecting cAMP levels
[2] = CHO-K1 OPRM1 β-Arrestin cells, 90 minutes, read-out: EC50 on the β-arrestin signaling pathway

Compound	Emax (μ-opioid receptors (MOR)) [%]	EC50 (μ-opioid receptors (MOR)) [nM]	other results
N#CCC1CC[C@H](NCC[C@@]2(c3ccccn3)CCOC3(CCCC3)C2)c2ccccc21 (stereo partly drawn) [Example 32, 2-((4S)-4-((2-((R)-9-(pyridin-2-yl)-6-oxaspiro[4.5]decan-9-yl)ethyl)amino)-1,2,3,4-tetra hydronaphthalen-1-yl)acetonitrile]	133		EC50 (μ-opioid receptors (MOR); [1]): 0.8 nM
c1ccc([C@]2(CCN[C@H]3CCOc4ccccc43)CCOC3(CCCC3)C2)nc1 [Example 6, (S)-N-(2-((R)-9-(pyridin-2-yl)-6-oxaspiro[4.5]decan-9-yl)ethyl)chroman-4-amine]	115	1	IC50 (hERG potassium channel): 3800 nM
c1ccc([C@]2(CCN[C@H]3CCCc4ccccc43)CCOC3(CCCC3)C2)nc1 [Example 10, (S)-N-(2-((R)-9-(pyridin-2-yl)-6-oxaspiro[4.5]decan-9-yl)ethyl)-1,2,3,4-tetrahydronaphthalen-1-amine]	113	4	
O[C@H]1Cc2ccccc2[C@@H]1NCCC1(c2ccccn2)CCOC2(CCCC2)C1 (stereo partly drawn) [Example 18, (1S,2S)-1-((2-(9-(pyridin-2-yl)-6-oxaspiro[4.5]decan-9-yl)ethyl)amino)-2,3-dihydro-1H-inden-2-ol]	4	> 10000	
CO[C@@H]1Cc2ccccc2[C@H]1NCC[C@@]1(c2ccccn2)CCOC2(CCCC2)C1 [Example 4, (1R,2R)-2-methoxy-N-(2-((R)-9-(pyridin-2-yl)-6-oxaspiro[4.5]decan-9-yl)ethyl)-2,3-dihydro-1H-inden-1-amine]	129	1	
c1ccc([C@]2(CCN[C@H]3CCC4(OCCO4)c4ccccc43)CCOC3(CCCC3)C2)nc1 [Example 33, (S)-N-(2-((R)-9-(pyridin-2-yl)-6-oxaspiro[4.5]decan-9-yl)ethyl)-3,4-dihydro-2H-spiro[naphthalen-1,2′-[1,3]dioxolane]-4-amine]			Emax (MOR receptor): 27%
Fc1ccc2c(c1)C(NCC[C@@]1(c3ccccn3)CCOC3(CCCC3)C1)CCO2 (stereo partly drawn) [Example 8, 6-fluoro-N-(2-((R)-9-(pyridin-2-yl)-6-oxaspiro[4.5]decan-9-yl)ethyl)chroman-4-amine]	114	3	
c1ccc([C@]2(CCN[C@@H]3CCCc4ccccc43)CCOC3(CCCC3)C2)nc1 [Example 9, (R)-N-(2-((R)-9-(pyridin-2-yl)-6-oxaspiro[4.5]decan-9-yl)ethyl)-1,2,3,4-tetrahydronaphthalen-1-amine]	48	> 10000	
CO[C@H]1Cc2ccccc2[C@@H]1NCC[C@@]1(c2ccccn2)CCOC2(CCCC2)C1 [Example 17, (1S,2S)-2-methoxy-N-(2-((R)-9-(pyridin-2-yl)-6-oxaspiro[4.5]decan-9-yl)ethyl)-2,3-dihydro-1H-inden-1-amine]	0	> 10000	
CCN1CC[C@@H](NCC[C@@]2(c3ccccn3)CCOC3(CCCC3)C2)c2ccccc21 [Example 2, (R)-1-ethyl-N-(2-((R)-9-(pyridin-2-yl)-6-oxaspiro[4.5]decan-9-yl)ethyl)-1,2,3,4-tetrahydroquinolin-4-amine]	0		EC50 (MOR receptor; [2]): > 10000 nM; Emax (MOR receptor): 4%; EC50 (μ-opioid receptors (MOR); [1]): > 10000 nM
c1ccc([C@]2(CCN[C@@H]3CCOc4ccccc43)CCOC3(CCCC3)C2)nc1 [Example 7, (R)-N-(2-((R)-9-(pyridin-2-yl)-6-oxaspiro[4.5]decan-9-yl)ethyl)chroman-4-amine]	0	> 10000	
C=C1CC[C@H](NCC[C@@]2(c3ccccn3)CCOC3(CCCC3)C2)c2ccccc21 [Example 28, (S)-4-methylene-N-(2-((R)-9-(pyridin-2-yl)-6-oxaspiro[4.5]decan-9-yl)ethyl)-1,2,3,4-tetrahydronaphthalen-1-amine]			EC50 (MOR receptor): 15 nM; Emax (MOR receptor): 22%
O[C@H]1CC[C@H](NCC[C@@]2(c3ccccn3)CCOC3(CCCC3)C2)c2ccccc21 [Example 12, (1S,4S)-4-((2-((R)-9-(pyridin-2-yl)-6-oxaspiro[4.5]decan-9-yl)ethyl)amino)-1,2,3,4-tetrahydronaphthalen-1-ol]	125	2	IC50 (hERG potassium channel): 10200 nM
CO[C@@H]1CC[C@H](NCC[C@@]2(c3ccccn3)CCOC3(CCCC3)C2)c2ccccc21 [Example 30, (1S,4R)-4-methoxy-N-(2-((R)-9-(pyridin-2-yl)-6-oxaspiro[4.5]decan-9-yl)ethyl)-1,2,3,4-tetrahydronaphthalen-1-amine]	126	2	
c1ccc([C@]2(CCN[C@@H]3CCc4ccccc43)CCOC3(CCCC3)C2)nc1 [Example 15, (R)-N-(2-((R)-9-(pyridin-2-yl)-6-oxaspiro[4.5]decan-9-yl)ethyl)-2,3-dihydro-1H-inden-1-amine]	0	> 10000	
O[C@@H]1CC[C@H](NCC[C@@]2(c3ccccn3)CCOC3(CCCC3)C2)c2ccccc21 [Example 13, (1R,4S)-4-((2-((R)-9-(pyridin-2-yl)-6-oxaspiro[4.5]decan-9-yl)ethyl)amino)-1,2,3,4-tetrahydronaphthalen-1-ol]	130	8	IC50 (hERG potassium channel): 13500 nM
COC[C@@H]1CC[C@H](NCC[C@@]2(c3ccccn3)CCOC3(CCCC3)C2)c2ccccc21 [Example 23, (1S,4R)-4-(methoxymethyl)-N-(2-((R)-9-(pyridin-2-yl)-6-oxaspiro[4.5]decan-9-yl)ethyl)-1,2,3,4-tetrahydronaphthalen-1-amine]	120	5	
N#CCO[C@H]1CC[C@H](NCC[C@@]2(c3ccccn3)CCOC3(CCCC3)C2)c2ccccc21 [Example 29, 2-(((1S,4S)-4-((2-((R)-9-(pyridin-2-yl)-6-oxaspiro[4.5]decan-9-yl)ethyl)amino)-1,2,3,4-tetrahydronaphthalen-1-yl)oxy)acetonitrile]	112		EC50 (MOR receptor; [2]): 33 nM; Emax (MOR receptor): 32%; EC50 (μ-opioid receptors (MOR); [1]): 7 nM
CCCO[C@H]1CC[C@H](NCC[C@@]2(c3ccccn3)CCOC3(CCCC3)C2)c2ccccc21 [Example 34, (1S,4S)-4-propoxy-N-(2-((R)-9-(pyridin-2-yl)-6-oxaspiro[4.5]decan-9-yl)ethyl)-1,2,3,4-tetrahydronaphthalen-1-amine]			EC50 (MOR receptor; [2]): 16 nM; Emax (MOR receptor): 10%
COc1ccsc1CNCC[C@@]1(c2ccccn2)CCOC2(CCCC2)C1 [TRV-130, reference compound]			IC50 (hERG potassium channel): 1600 nM
